ChEMBL document CHEMBL5576127, “New CDDO Arylboronate Ester Derivatives with High Selectivity and Low Toxicity” (J Med Chem, 2024)
Active and inactive are the calls of the source. The rule behind the calls is not given here.

Key:
[1] = GSH reactivity in human BGC-823 cells assessed as GSSG/GSH ratio at 0.4 uM incubated for 24 hrs by microplate reader analysis (reference value: 0.34); type: ADME, cell-based; details: bgc-823, 24 h
BGC-823 [2] = experiment: Induction of apoptosis in human BGC-823 cells assessed as late apoptotic cells at 0.5 uM incubated for 48 hrs by Annexin V-FITC/PI staining based flow cytometric analysis ( Rvb = 5.61 %); type: functional
[3] = Apparent volume of distribution in rat at 10 mg/kg, ip measured after 24 hrs by LC-MS/MS analysis; type: ADME, organism-based; details: in vivo
[4] = Binding affinity to DTT in PBS assessed as UV peak appearance at 288 nm at 360 uM by UV-Vis spectra analysis
BGC-823 [5] = experiment: Induction of ROS generation in human BGC-823 cells assessed as cells with green fluorescence at 1 uM incubated for 24 hrs by DCFH-DA staining based analysis relative to control; type: functional
BGC-823 [6] = experiment: Induction of apoptosis in human BGC-823 cells assessed as early apoptotic cells at 1 uM incubated for 48 hrs by Annexin V-FITC/PI staining based flow cytometric analysis ( Rvb = 1.68 %); type: functional
BGC-823 [7] = experiment: Induction of apoptosis in human BGC-823 cells assessed as viable cells at 0.5 uM incubated for 48 hrs by Annexin V-FITC/PI staining based flow cytometric analysis ( Rvb = 90.09 %); type: functional; details: read-out: Activity
BGC-823 [8] = experiment: Induction of ROS generation in human BGC-823 cells assessed as cells with green fluorescence at 0.5 uM incubated for 24 hrs by DCFH-DA staining based analysis relative to control; type: functional
BGC-823 [9] = experiment: Induction of apoptosis in human BGC-823 cells assessed as necrotic cells at 1 uM incubated for 48 hrs by Annexin V-FITC/PI staining based flow cytometric analysis ( Rvb = 1.79 %); type: functional
Cell membrane [10] = experiment: Induction of mitochondrial membrane potential loss in human BGC-823 cells assessed as increase in number of cells with J-monomers by measuring green fluorescence at 0.5 uM incubated for 24 hrs by JC-1 staining based flow cytometric analysis (reference value: 0.33%); type: cell membranes
BGC-823 [11] = experiment: Induction of apoptosis in human BGC-823 cells assessed as viable cells at 0.25 uM incubated for 48 hrs by Annexin V-FITC/PI staining based flow cytometric analysis ( Rvb = 90.09 %); type: functional; details: read-out: Activity
[12] = AUC (0 to infinity) in rat at 10 mg/kg, iv measured after 24 hrs by LC-MS/MS analysis; type: ADME, organism-based; details: in vivo
BGC-823 [13] = experiment: Induction of apoptosis in human BGC-823 cells assessed as early apoptotic cells at 0.5 uM incubated for 48 hrs by Annexin V-FITC/PI staining based flow cytometric analysis ( Rvb = 1.68 %); type: functional
Cell membrane [14] = experiment: Induction of mitochondrial membrane potential loss in human BGC-823 cells assessed as decrease in number of cells with J-aggregates by measuring red fluorescence at 1 uM incubated for 24 hrs in presence of NAC by JC-1 staining based flow cytometric analysis (reference value: 99.7 %); type: cell membranes; set-up: scale not given: the % may be the effect or the level left
BGC-823 [15] = experiment: Induction of apoptosis in human BGC-823 cells assessed as viable cells at 1 uM incubated for 48 hrs by Annexin V-FITC/PI staining based flow cytometric analysis ( Rvb = 90.09 %); type: functional; details: read-out: Activity
Cell membrane [16] = experiment: Induction of mitochondrial membrane potential loss in human BGC-823 cells assessed as decrease in number of cells with J-aggregates by measuring red fluorescence at 0.25 uM incubated for 24 hrs by JC-1 staining based flow cytometric analysis (reference value: 99.7 %); type: cell membranes; set-up: scale not given: the % may be the effect or the level left
[17] = Apparent volume of distribution in rat at 10 mg/kg, iv measured after 24 hrs by LC-MS/MS analysis; type: ADME, organism-based; details: in vivo, read-out: Vz
BGC-823 [18] = experiment: Induction of apoptosis in human BGC-823 cells assessed as late apoptotic cells at 1 uM incubated for 48 hrs by Annexin V-FITC/PI staining based flow cytometric analysis ( Rvb = 5.61 %); type: functional
[19] = AUC (0 to infinity) in rat at 10 mg/kg, ip measured after 24 hrs by LC-MS/MS analysis; type: ADME, organism-based; details: in vivo
BGC-823 [20] = experiment: Induction of apoptosis in human BGC-823 cells assessed as necrotic cells at 0.25 uM incubated for 48 hrs by Annexin V-FITC/PI staining based flow cytometric analysis ( Rvb = 1.79 %); type: functional
BGC-823 [21] = experiment: Induction of apoptosis in human BGC-823 cells assessed as necrotic cells at 0.5 uM incubated for 48 hrs by Annexin V-FITC/PI staining based flow cytometric analysis ( Rvb = 1.79 %); type: functional
BGC-823 [22] = experiment: Induction of ROS generation in human BGC-823 cells assessed as cells with green fluorescence at 0.25 uM incubated for 24 hrs by DCFH-DA staining based analysis relative to control; type: functional
[23] = AUC (0 to t) in rat at 10 mg/kg, iv measured after 24 hrs by LC-MS/MS analysis; type: ADME, organism-based; details: in vivo
[24] = Clearance in rat at 10 mg/kg, iv measured after 24 hrs by LC-MS/MS analysis; type: ADME, organism-based; details: in vivo
[25] = Half-life in rat at 10 mg/kg, ip measured after 24 hrs by LC-MS/MS analysis; type: ADME, organism-based; details: in vivo
Cell membrane [26] = experiment: Induction of mitochondrial membrane potential loss in human BGC-823 cells assessed as increase in number of cells with J-monomers by measuring green fluorescence at 1 uM incubated for 24 hrs by JC-1 staining based flow cytometric analysis (reference value: 0.33%); type: cell membranes
BGC-823 [27] = experiment: Induction of apoptosis in human BGC-823 cells assessed as late apoptotic cells at 0.25 uM incubated for 48 hrs by Annexin V-FITC/PI staining based flow cytometric analysis ( Rvb = 5.61 %); type: functional
[28] = AUC (0 to t) in rat at 10 mg/kg, ip measured after 24 hrs by LC-MS/MS analysis; type: ADME, organism-based; details: in vivo
[29] = Cmax in rat at 10 mg/kg, iv measured after 24 hrs by LC-MS/MS analysis; type: ADME, organism-based; details: in vivo
Cell membrane [30] = experiment: Induction of mitochondrial membrane potential loss in human BGC-823 cells assessed as decrease in number of cells with J-aggregates by measuring red fluorescence at 1 uM incubated for 24 hrs by JC-1 staining based flow cytometric analysis (reference value: 99.7 %); type: cell membranes; set-up: scale not given: the % may be the effect or the level left
Cell membrane [31] = experiment: Induction of mitochondrial membrane potential loss in human BGC-823 cells assessed as increase in number of cells with J-monomers by measuring green fluorescence at 1 uM incubated for 24 hrs in presence of NAC by JC-1 staining based flow cytometric analysis (reference value: 0.33%); type: cell membranes
BGC-823 [32] = experiment: Cell cycle arrest in human BGC-823 cells assessed as accumulation of cells at G2/M phase incubated for 24 hrs by PI staining based flow cytometric analysis; type: functional
[33] = Cmax in rat at 10 mg/kg, ip measured after 24 hrs by LC-MS/MS analysis; type: ADME, organism-based; details: in vivo
BGC-823 [34] = experiment: Induction of ROS generation in human BGC-823 cells assessed as cells with green fluorescence at 0.25 uM incubated for 24 hrs in presence of NAC by DCFH-DA staining based analysis relative to control; type: functional
Cell membrane [35] = experiment: Induction of mitochondrial membrane potential loss in human BGC-823 cells assessed as decrease in number of cells with J-aggregates by measuring red fluorescence at 0.5 uM incubated for 24 hrs by JC-1 staining based flow cytometric analysis (reference value: 99.7 %); type: cell membranes; set-up: scale not given: the % may be the effect or the level left
[36] = Clearance in rat at 10 mg/kg, ip measured after 24 hrs by LC-MS/MS analysis; type: ADME, organism-based; details: in vivo
[37] = Half-life in rat at 10 mg/kg, iv measured after 24 hrs by LC-MS/MS analysis; type: ADME, organism-based; details: in vivo
BGC-823 [38] = experiment: Induction of apoptosis in human BGC-823 cells assessed as early apoptotic cells at 0.25 uM incubated for 48 hrs by Annexin V-FITC/PI staining based flow cytometric analysis ( Rvb = 1.68 %); type: functional
Cell membrane [39] = experiment: Induction of mitochondrial membrane potential loss in human BGC-823 cells assessed as increase in number of cells with J-monomers by measuring green fluorescence at 0.25 uM incubated for 24 hrs by JC-1 staining based flow cytometric analysis (reference value: 0.33%); type: cell membranes

Ratio [1]: 1.08 | Vz [3]: 20.63 L/kg | Activity [4]: Active | Activity (Cell membrane [10]): 15.4% | AUC(0-inf) [12]: 20200 ng·h/mL | Activity (Cell membrane [14]): 96.7% | Activity (Cell membrane [16]): 97.8% | Vd [17]: 3.99 L/kg | AUC [19]: 1163 ng·h/mL | AUC(0-t) at 24 h [23]: 20000 ng·h/mL | clearance [24]: 8.4 mL/min/kg | half-life [25]: 16.5 h | Activity (Cell membrane [26]): 77.4% | AUCt [28]: 7310 ng·h/mL | Cmax [29]: 19000 ng/mL | Activity (Cell membrane [30]): 24.5% | Activity (Cell membrane [31]): 3.14% | Cmax [33]: 881 ng/mL | Activity (Cell membrane [35]): 84.2% | CL [36]: 14.4 mL/min/kg | half-life [37]: 5.4 h | Activity (Cell membrane [39]): 2.06%
SMILES: CC1(C)CC[C@]2(C(=O)OCCCCOC(=O)c3ccc(O)cc3)CC[C@]3(C)[C@H](C(=O)C=C4[C@@]5(C)C=C(C#N)C(=O)C(C)(C)[C@@H]5CC[C@]43C)[C@@H]2C1
Activity (BGC-823 [2]): 16.1% | Activity (BGC-823 [5]): 95.3% | Activity (BGC-823 [6]): 14% | viability at 0.5 µM (BGC-823 [7]): 74.7% | Activity (BGC-823 [8]): 61.6% | Activity (BGC-823 [9]): 5.52% | viability at 0.25 µM (BGC-823 [11]): 90.6% | Activity (BGC-823 [13]): 3.44% | viability at 1 µM (BGC-823 [15]): 50.1% | Activity (BGC-823 [18]): 30.4% | Activity (BGC-823 [20]): 0.49% | Activity (BGC-823 [21]): 5.79% | Activity (BGC-823 [22]): 23.2% | Activity (BGC-823 [27]): 5.9% | Activity (BGC-823 [32]): Dose-Dependent Effect | Activity (BGC-823 [34]): 67.2% | Activity (BGC-823 [38]): 3.01%
